Results filed as inconclusive are left out. Active and inactive are the calls of the source. The rule behind the calls is not given here.
Target: Histone acetyltransferase RTT109 (Candida albicans (strain SC5314 / ATCC MYA-2876)) (UniProt Q5AAJ8)
Assay: Rtt109/Vps75 acetyltransferase inhibitor potency, dose response, biochemical, cherry-picked hits, plate reader (AID 588764)
Conditions: Rtt109/Vps75 HAT activity

Sequence of Histone acetyltransferase RTT109 (Candida albicans (strain SC5314 / ATCC MYA-2876)) (Q5AAJ8 whole entry, looked up): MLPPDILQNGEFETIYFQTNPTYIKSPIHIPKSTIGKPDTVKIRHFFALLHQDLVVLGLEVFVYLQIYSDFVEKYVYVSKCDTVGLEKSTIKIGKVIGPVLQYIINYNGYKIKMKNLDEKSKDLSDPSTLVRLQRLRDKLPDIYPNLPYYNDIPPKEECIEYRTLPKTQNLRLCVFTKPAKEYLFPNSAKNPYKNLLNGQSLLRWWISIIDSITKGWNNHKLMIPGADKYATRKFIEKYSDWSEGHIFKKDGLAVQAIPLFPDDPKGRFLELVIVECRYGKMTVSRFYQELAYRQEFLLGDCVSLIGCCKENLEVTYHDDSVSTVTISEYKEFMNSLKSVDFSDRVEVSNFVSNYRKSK

| SMILES | AC50 |
| --- | --- |
| CCOC(=O)/C=C/S(=O)(=O)c1ccc(NC(C)=O)cc1 | 5.88 µM |
| Cc1ccc(/C=C/C(=O)NCc2ccc(S(N)(=O)=O)cc2)o1 | 10.7 µM |
| COc1ccc(-n2sc3ccc(F)cc3c2=O)cc1 | 6 µM |
| O=c1c2ccccc2sn1-c1cc(S(=O)(=O)N2CCOCC2)ccc1N1CCOCC1 | 3.78 µM |
| CCOC(=O)C(=Cc1cc(=O)c(OC)co1)C(=O)OCC | 10.7 µM |
| Nc1nnc(SC2CC(=O)N(c3ccccc3)C2=O)s1 (stereo unspecified) | 13.6 µM |
| Cc1nnc(SC2CC(=O)N(c3ccccc3)C2=O)s1 (stereo unspecified) | 17.5 µM |
| N#Cc1c(Nc2ccccc2)s[nH]c1=O | 5.84 µM |
| CC1(C)CC2(CC(c3ccccc3F)c3ccc(O)c(O)c3O2)NC(=S)N1 (stereo unspecified) | 19.7 µM |
| O=C(CCC(=O)OCC(=O)c1ccc([N+](=O)[O-])cc1)Nc1ccccc1Cl | 8.57 µM |
| O=c1c2cc(F)ccc2sn1-c1ccccc1 | 1.81 µM |
| O=C1OC(NC(=O)c2ccccc2)C(n2cc(CO)nn2)=C1Cl (stereo unspecified) | 5.2 µM |
| C[C@]12CC[C@@H]3c4ccc(O)c(O)c4CC[C@H]3[C@@H]1CC[C@@H]2O | 10 µM |
| C=CCNc1nnc(SC2CC(=O)N(c3ccc(OC)cc3)C2=O)s1 (stereo unspecified) | 13.4 µM |

Same assay, conditions: Rtt109/Vps75 HAT activity, at 19.5 µM (top of the series)

| SMILES | activity change, negative = inhibition |
| --- | --- |
| COc1ccc(CN(C)C(=O)c2cc(S(=O)(=O)N3CCCCCC3)ccc2OC)cc1OC | inactive |
| CCOc1ccc(N2C(=O)CC(Sc3ccccc3C(=O)O)C2=O)c([N+](=O)[O-])c1 (stereo unspecified) | inactive |
| Cc1ccc2nc(-c3ccc(NC(=S)NC4CC(C)(C)NC(C)(C)C4)cc3)sc2c1 | inactive |
| CN(C)c1ccc(/C=C/c2ccc3c4ccccc4ccc3[n+]2-c2ccccc2)cc1 | inactive |
| CC(=O)N(c1ccc2oc(=O)sc2c1)S(=O)(=O)c1cccc2cccnc12 | inactive |
| CC(=O)/C(=N/Nc1ccccc1)Sc1nnc(C(O)c2ccccc2)n1-c1ccccc1 (stereo unspecified) | inactive |
| COc1cccc(NC(=O)CSc2nc3c(sc4ccccc43)c(=O)n2CCN(C)C)c1 | inactive |
| CC[n+]1c(C)sc2c(C)cc(C)cc21 | inactive |
| CCOc1cc(/C=N/NC(=O)CSc2nncn2C)ccc1OCc1cccc(C)c1 | inactive |
| COc1cc(NC(=O)COc2c(C)cc(C)cc2[N+](=O)[O-])c(OC)cc1Cl | inactive |
| NNc1n[nH]c(=S)n1N | inactive |
| Cc1nn(CC(=O)NCc2cccnc2)c(C)c1[N+](=O)[O-] | inactive |
| COc1ccc(/C=N/NC(=O)COc2ccc(Cl)cc2Cl)cc1Cn1nc(C)cc1C | inactive |
| O=C(NCC(=O)N1CCCCC1)c1ccc2ccccc2c1 | inactive |
| CCn1c(SCC(=O)Nc2ccc(Br)cc2)nc2sc3c(c2c1=O)CCN(C)C3 | inactive |
| CN1CCN(S(=O)(=O)c2cccc(C(=O)N(Cc3ccccc3)c3ccccc3)c2)CC1 | inactive |
| CCOC(=O)c1c(C)n(-c2ccc(C)cc2)c2ccc(OCC(O)CNCCCO)cc12 (stereo unspecified) | inactive |
| O=C(C[n+]1cc(-c2ccc(Cl)c(Cl)c2)n2c1CCC2)N1c2ccccc2Sc2ccccc21 | inactive |
| COc1cccc(-c2ccc(C#N)c(SCC(=O)NCCc3ccc(Cl)cc3)n2)c1 | inactive |
| Cc1ccc(S(=O)(=O)/N=C2\C=C(NS(=O)(=O)c3ccccc3)C(=O)c3ccccc32)cc1 | inactive |
| O=C1Nc2cc(C(=O)NCCCN3CCCC3)ccc2S/C1=C\c1ccccc1 | inactive |
| COc1ccc2[nH]c(=O)c(CN(Cc3nnnn3Cc3ccccc3)CC3CCCO3)cc2c1 (stereo unspecified) | inactive |
| CCOC(=O)C1=C(C)N=c2s/c(=C\c3ccc(OCC(=O)O)cc3)c(=O)n2C1c1ccc(OC(C)C)cc1 (stereo unspecified) | inactive |

| SMILES | activity change, negative = inhibition |
| --- | --- |
| CCOC(=O)C1CCN(S(=O)(=O)c2ccc3c(c2)CC(C)N3C(=O)C2CCC2)CC1 (stereo unspecified) | inactive |
| CC1CCN(c2ccccc2NC(=O)c2cc([N+](=O)[O-])ccc2N2CCOCC2)CC1 | inactive |
| CC(C)c1nc(SCC(=O)Nc2ccc(N3CCOCC3)cc2)c2ccccc2n1 | inactive |
| Cc1ccc(C(=O)NCCCNC(=O)COc2ccc(C)c(C)c2)cn1 | inactive |
| COc1ccc(Br)cc1CN(C)C(C)C(=O)Nc1cccc(C(C)=O)c1 (stereo unspecified) | inactive |
| COc1ccc(S(=O)(=O)N2CCN(c3ccccn3)CC2)cc1OC | inactive |
| COC(=O)c1cccc(Oc2cccc(Cl)n2)c1 | inactive |
| Cc1ccc(-n2c(O)c(C=NCc3ccccn3)c3ccccc3c2=O)cc1C | inactive |
| COc1ccc(N2CCN(C(=O)CSc3nnc(-c4cccnc4)n3-c3ccccc3)CC2)cc1 | inactive |
| C=CCOc1ccc(/C(O)=C2\C(=O)C(=O)N(CCOC)C2c2cccnc2)cc1 (stereo unspecified) | inactive |
| CCOC(=O)c1c(C)oc2c1c(C=NCCO)c(O)c1ccccc12 | inactive |
| O=C(/C=C/Nc1ccc([N+](=O)[O-])cc1Br)c1cccc2ccccc12 | inactive |
| COc1ccc(N2CCN(C(=O)CNC(=O)Cc3ccccc3)CC2)cc1 | inactive |
| COc1ccccc1NS(=O)(=O)c1ccc(C)c(C(=O)NCC2(N(C)C)CCCCC2)c1 | inactive |
| O=C(CN1CCCc2ccccc21)NCc1ccc2c(c1)OCO2 | inactive |
| COc1ccc(CNC(=O)COC(=O)c2ccc(S(=O)(=O)N3CCCCC3)cc2)cc1 | inactive |
| Cc1nn(S(=O)(=O)c2ccc(C(C)C)cc2)c(C)c1S(=O)(=O)N1CCOCC1 | inactive |
| CC(=O)c1cccc(S(=O)(=O)N2CCC(C(=O)O)CC2)c1 | inactive |
| COc1ccc(-[n+]2c(C)cc(/C=C3\Sc4ccccc4N3C)cc2C)cc1 | inactive |
| CC(C)(C)C1CCc2c(sc(NC(=O)CSc3nnc(-c4ccccc4)o3)c2C#N)C1 (stereo unspecified) | inactive |
| COc1cccc(/C=C2/Sc3ccc(C(=O)NCCN4CCCC4)cc3NC2=O)c1 | inactive |
| CCOC(=O)C1=C(C)NC(=S)N(C(C)=O)C1c1ccc(Cl)cc1 (stereo unspecified) | inactive |
| CC(C(=O)NC1C=CS(=O)(=O)C1)N1C(=O)/C(=C/c2ccc(Cl)cc2)SC1=S (stereo unspecified) | inactive |

| SMILES | activity change, negative = inhibition |
| --- | --- |
| COc1cc2nc(NCCCN3CCN(C)CC3)n3nc(-c4ccccc4)nc3c2cc1OC | inactive |
| CCN1C=CC(=C2C(=O)c3ccccc3C2=O)C=C1 | inactive |
| COc1ccccc1NC(=O)CSC(N)=O | inactive |
| Cc1nc2ccccc2n1CC(=O)NC1CCCC1 | inactive |
| COc1cccc(OC)c1C(=O)Nc1cccc(-c2ccc(N3CCOCC3)nn2)c1 | inactive |
| CN(C)S(=O)(=O)n1cc(/C=C(\NC(=O)c2ccccc2)C(=O)N2CCCC2)c2ccccc21 | inactive |
| Fc1ccccc1C1CC(c2ccco2)=Nc2ccccc2S1 (stereo unspecified) | inactive |
| O=C(O)c1ccc(-c2ccc(/C=N/Nc3ccc([N+](=O)[O-])cc3)o2)cc1 | inactive |
| Cc1ccccc1Nc1nnc(SCC2CCCCO2)s1 (stereo unspecified) | inactive |
| CCCCS(=O)(=O)c1sc2nc(C)cc(C)c2c1N | inactive |
| C#CCOCCOCCOCCNc1nc(N2CCN(C(=O)C([C@@H](C)O)n3cc([C@@H](N)CCCCN)nn3)CC2)nc(N2CCN(C(=O)C([C@@H](C)O)n3cc([C@@H](N)CCCCN)nn3)CC2)n1 (stereo partly specified) | inactive |
| COc1ccccc1CC(=O)N1CCN(S(=O)(=O)c2ccccc2F)CC1 | inactive |
| O=C(Nc1ccc(Cl)c(S(=O)(=O)N2CCCCC2)c1)C1=COCCO1 | inactive |
| O=C(CSc1nnc(Cc2cccs2)n1C1CCCCC1)N1CCN(C(=O)c2ccco2)CC1 | inactive |
| Cc1ccc(CN2CCN(CC(=O)NCc3ccccc3)CC2)cc1 | inactive |
| CC1Sc2ccccc2N(CC(=O)N(C(C)C)C(C)C)C1=O (stereo unspecified) | inactive |
| CCOC(=O)C(C)N1C(=O)S/C(=C/c2ccc3c(c2)n(C)c(=O)n3C)C1=O (stereo unspecified) | inactive |
| Cc1ccc(S(=O)(=O)c2nc(-c3ccccc3)oc2N2CCC(C(N)=O)CC2)cc1 | inactive |
| Cc1nn(C2CCS(=O)(=O)C2)c2nc(C3CC3)cc(C(=O)Nc3ccc(C(N)=O)cc3)c12 (stereo unspecified) | inactive |
| CCN(c1ccc(OC)cc1)S(=O)(=O)c1nnc(NC(=O)COc2ccc(C)cc2)s1 | inactive |
| NC(N)=N/N=C/c1ccc(OCc2ccccc2)c(OCc2ccccc2)c1 | inactive |

From PubChem BioAssay AID588764 (Broad Institute, 2011)
